What all share (assay type): functional
The subject of experiment [1] is Mycobacterium tuberculosis. Nature of the experiment: Antimycobacterial activity against dormant state of Mycobacterium bovis BCG by two fold dilution method. To be noted: variant bovis BCG.
The test system of experiment [2] is Mycobacterium tuberculosis. Nature of the experiment: Antimycobacterial activity against dormant state of Mycobacterium bovis BCG assessed as growth inhibition at 10 ug/ml after 12 days by nitrate reductase assay relative to control. To be noted: variant bovis BCG, 288 h, read-out: GI.
Experiment [3] relates to Mycobacterium tuberculosis. As to the kind of experiment: Antimycobacterial activity against dormant state of Mycobacterium bovis BCG assessed as growth inhibition at 30 ug/ml after 12 days by nitrate reductase assay relative to control. To be noted: variant bovis BCG, 288 h, read-out: GI.
Experiment [4] relates to Mycobacterium tuberculosis. Nature of the experiment: Antimycobacterial activity against dormant state of Mycobacterium bovis BCG assessed as growth inhibition at 3 ug/ml after 12 days by nitrate reductase assay relative to control. To be noted: variant bovis BCG, 288 h, read-out: GI.

Structures are written as SMILES. ≈ marks a conversion by molar mass, not a printed value.

Usually MIC50 stands for the lowest concentration that inhibits either 50% of growth or 50% of the strains tested, depending on the study. A higher MIC50 goes with lower susceptibility. The term MIC90 denotes an inhibitory concentration at the 90% level, which refers to growth in some studies and to a panel of isolates in others. Consider `O=C1/C(=C/c2cc3ccccc3nc2Cl)CNC/C1=C\c1cc2ccccc2nc1Cl`, for which, in experiment [1], the MIC50 was determined as 9.6 mg/L (≈ 21.5 µM) and the MIC90 is > 30 mg/L. Moreover, the inhibition of growth at 10 µg/mL in experiment [2] was 50.6%. Also, the inhibition of growth at 30 µg/mL in experiment [3] came out at 79.7%. The inhibition of growth at 3 µg/mL in experiment [4] stood at 38.3%.

Turning to `COc1ccc2nc(Cl)c(/C=C3\CN(C)C/C(=C\c4cc5cc(OC)ccc5nc4Cl)C3=O)cc2c1`, in experiment [1], the MIC50 is > 30 mg/L and the MIC90 was > 30 mg/L. For the same compound, the inhibition of growth at 10 µg/mL in experiment [2] was found to be 13.3%. In experiment [3], the inhibition of growth at 30 µg/mL is 31.9%. Besides, the inhibition of growth at 3 µg/mL in experiment [4] is 22.9%.

Turning to `CN1C/C(=C\c2cc3cc(F)ccc3nc2Cl)C(=O)/C(=C/c2cc3cc(F)ccc3nc2Cl)C1`, in experiment [1], the MIC50 worked out at 25.6 mg/L (≈ 51.6 µM) and the MIC90 is > 30 mg/L. The inhibition of growth at 10 µg/mL in experiment [2] was 1%. The inhibition of growth at 30 µg/mL in experiment [3] is 63.8%. The inhibition of growth at 3 µg/mL in experiment [4] turned out to be 17.6%.

Turning to `Cc1ccc2nc(Cl)c(/C=C3\CN(C)C/C(=C\c4cc5cc(C)ccc5nc4Cl)C3=O)cc2c1`, in experiment [1], the MIC50 was > 30 mg/L and the MIC90 is > 30 mg/L. Also, the inhibition of growth at 10 µg/mL in experiment [2] amounted to 1%. For the same compound, the inhibition of growth at 30 µg/mL in experiment [3] is 20.2%. Moreover, in experiment [4], the inhibition of growth at 3 µg/mL was -5.7%.

On to `Cc1cccc2cc(/C=C3\CNC/C(=C\c4cc5cccc(C)c5nc4Cl)C3=O)c(Cl)nc12`, for which, in experiment [1], the MIC50 was 2.5 mg/L (≈ 5.27 µM) and the MIC90 was > 30 mg/L. The inhibition of growth at 10 µg/mL in experiment [2] turned out to be 66.7%. Also, the inhibition of growth at 30 µg/mL in experiment [3] was determined as 77.1%. The inhibition of growth at 3 µg/mL in experiment [4] was 52.1%.

In experiment [1], `COc1ccc2nc(Cl)c(/C=C3\CNC/C(=C\c4cc5cc(OC)ccc5nc4Cl)C3=O)cc2c1` yielded an MIC50 of 11 mg/L (≈ 21.7 µM) and an MIC90 of 27.2 mg/L (≈ 53.7 µM). In addition, the inhibition of growth at 10 µg/mL in experiment [2] came to 48.4%. Further, the inhibition of growth at 30 µg/mL in experiment [3] stood at 97.2%. Moreover, in experiment [4], the inhibition of growth at 3 µg/mL is 28%.

For the compound `Cc1ccc2cc(/C=C3\CN(C)C/C(=C\c4cc5ccc(C)cc5nc4Cl)C3=O)c(Cl)nc2c1`, in experiment [1], the MIC50 was found to be 5.8 mg/L (≈ 11.9 µM) and the MIC90 came out at 15.4 mg/L (≈ 31.5 µM). For the same compound, the inhibition of growth at 10 µg/mL in experiment [2] worked out at 89.4%. In experiment [3], the inhibition of growth at 30 µg/mL is 90.4%. Further, the inhibition of growth at 3 µg/mL in experiment [4] is 23.2%.

With `CN1C/C(=C\c2cc3cc(Cl)ccc3nc2Cl)C(=O)/C(=C/c2cc3cc(Cl)ccc3nc2Cl)C1`, in experiment [1], the MIC50 came to 3.3 mg/L (≈ 6.24 µM) and the MIC90 was found to be 21.5 mg/L (≈ 40.6 µM). Also, the inhibition of growth at 10 µg/mL in experiment [2] worked out at 82.1%. Also, the inhibition of growth at 30 µg/mL in experiment [3] was 96.2%. Besides, the inhibition of growth at 3 µg/mL in experiment [4] worked out at 49%.

Consider `COc1ccc2cc(/C=C3\CN(C)C/C(=C\c4cc5ccc(OC)cc5nc4Cl)C3=O)c(Cl)nc2c1`, for which, in experiment [1], the MIC50 came out at 5.8 mg/L (≈ 11.1 µM) and the MIC90 came to 9.4 mg/L (≈ 18.1 µM). For the same compound, in experiment [2], the inhibition of growth at 10 µg/mL is 95.6%. For the same compound, in experiment [3], the inhibition of growth at 30 µg/mL was found to be 92.4%. For the same compound, the inhibition of growth at 3 µg/mL in experiment [4] was determined as 22.3%.

As to `O=C1/C(=C/c2cc3cc(Cl)ccc3nc2Cl)CNC/C1=C\c1cc2cc(Cl)ccc2nc1Cl`, in experiment [1], the MIC50 was found to be 19.7 mg/L (≈ 38.2 µM) and the MIC90 is > 30 mg/L. In experiment [2], the inhibition of growth at 10 µg/mL was determined as 24.6%. For the same compound, the inhibition of growth at 30 µg/mL in experiment [3] was 77.6%. Further, the inhibition of growth at 3 µg/mL in experiment [4] amounted to 37.5%.

As for `O=C1/C(=C/c2cc3cc(F)ccc3nc2Cl)CNC/C1=C\c1cc2cc(F)ccc2nc1Cl`, in experiment [1], the MIC50 came out at 2.1 mg/L (≈ 4.35 µM) and the MIC90 was determined as 9.2 mg/L (≈ 19.1 µM). In addition, the inhibition of growth at 10 µg/mL in experiment [2] came out at 93.4%. Also, in experiment [3], the inhibition of growth at 30 µg/mL came out at 96.1%. Further, the inhibition of growth at 3 µg/mL in experiment [4] is 61.9%.

With `COc1ccc2cc(/C=C3\CNC/C(=C\c4cc5ccc(OC)cc5nc4Cl)C3=O)c(Cl)nc2c1`, in experiment [1], the MIC50 is 1.4 mg/L (≈ 2.76 µM) and the MIC90 turned out to be 2.7 mg/L (≈ 5.33 µM). Also, in experiment [2], the inhibition of growth at 10 µg/mL is 98.3%. The inhibition of growth at 30 µg/mL in experiment [3] was determined as 96.8%. Besides, in experiment [4], the inhibition of growth at 3 µg/mL turned out to be 94.6%.

With `Cc1cccc2cc(/C=C3\CN(C)C/C(=C\c4cc5cccc(C)c5nc4Cl)C3=O)c(Cl)nc12`, in experiment [1], the MIC50 turned out to be 20.8 mg/L (≈ 42.6 µM) and the MIC90 was > 30 mg/L. Moreover, the inhibition of growth at 10 µg/mL in experiment [2] stood at 35.9%. Also, the inhibition of growth at 30 µg/mL in experiment [3] stood at 62.4%. In addition, the inhibition of growth at 3 µg/mL in experiment [4] amounted to 19.1%.

Consider `Cc1ccc2nc(Cl)c(/C=C3\CNC/C(=C\c4cc5cc(C)ccc5nc4Cl)C3=O)cc2c1`, for which, in experiment [1], the MIC50 is > 30 mg/L and the MIC90 is > 30 mg/L. In addition, in experiment [2], the inhibition of growth at 10 µg/mL came out at 38.5%. Besides, the inhibition of growth at 30 µg/mL in experiment [3] came out at 45.9%. Besides, the inhibition of growth at 3 µg/mL in experiment [4] was determined as 35.3%.

As to `CO[C@H]1/C=C/O[C@@]2(C)Oc3c(C)c(O)c4c(O)c(c(/C=N/N5CCN(C)CC5)c(O)c4c3C2=O)NC(=O)/C(C)=C\C=C\[C@H](C)[C@H](O)[C@@H](C)[C@@H](O)[C@@H](C)[C@H](OC(C)=O)[C@@H]1C` [RIFAMPIN], in experiment [1], the MIC50 turned out to be 0.0043 mg/L (≈ 0.00523 µM) and the MIC90 was 0.0173 mg/L (≈ 0.021 µM).

In the case of `CN1C/C(=C\c2cc3ccccc3nc2Cl)C(=O)/C(=C/c2cc3ccccc3nc2Cl)C1`, in experiment [1], the MIC50 worked out at 6 mg/L (≈ 13 µM) and the MIC90 worked out at 7.3 mg/L (≈ 15.9 µM). Also, in experiment [2], the inhibition of growth at 10 µg/mL stood at 61.7%. The inhibition of growth at 30 µg/mL in experiment [3] was 97.5%. Further, the inhibition of growth at 3 µg/mL in experiment [4] was determined as 31.7%.

For `Cc1ccc2cc(/C=C3\CNC/C(=C\c4cc5ccc(C)cc5nc4Cl)C3=O)c(Cl)nc2c1`, in experiment [1], the MIC50 was found to be 12.9 mg/L (≈ 27.2 µM) and the MIC90 is > 30 mg/L. In addition, in experiment [2], the inhibition of growth at 10 µg/mL was determined as 43.4%. The inhibition of growth at 30 µg/mL in experiment [3] stood at 89.8%. Also, the inhibition of growth at 3 µg/mL in experiment [4] was 33.8%.

For the origin of these results see ChEMBL document CHEMBL4002627, “Quinolidene based monocarbonyl curcumin analogues as promising antimycobacterial agents: Synthesis and molecular docking study” (Bioorg Med Chem Lett, 2017).
